From patent US20090023163A1, “Method of Measuring Enzyme Activity and Method of Evaluating Compound” (priority 2005, published 2009)

What was measured:
Assay type in all cases: biochemical
[1] = target: T1, hElovl-1 (human elongase of very long chain fatty acids-like 1) (Homo sapiens, UniProt Q9BW60); assay: Measuring activity of hElovl-1 using N-Tag-hACBP (SPA); details: HEK293 microsomal sample of hElovl-1, 40 μM long chain fatty acid CoA, 60 μM malonyl-CoA, 37° C. 2 hours, FIG. 3
T1 construct: implied by vector pCMV-Tag2B, own knowledge) (N); made in house; host or cells: HEK293, microsomal sample
T1 sequence (Q9BW60 1-279): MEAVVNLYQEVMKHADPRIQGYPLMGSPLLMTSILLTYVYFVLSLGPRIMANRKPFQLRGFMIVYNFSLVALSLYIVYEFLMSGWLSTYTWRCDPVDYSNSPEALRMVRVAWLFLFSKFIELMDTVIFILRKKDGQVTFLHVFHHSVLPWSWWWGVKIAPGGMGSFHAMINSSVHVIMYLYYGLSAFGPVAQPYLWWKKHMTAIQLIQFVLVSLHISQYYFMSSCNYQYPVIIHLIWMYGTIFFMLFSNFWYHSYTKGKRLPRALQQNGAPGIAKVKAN
Protocol: (§1) An assay buffer solution (100 mM sodium chloride, 100 mM Tris buffer solution, pH 6.5) containing the cell microsomal sample of hElovl-3 or hElovl-1 obtained by the above-mentioned preparation method, 1 μM rotenone (manufactured by Sigma), 1 mM NADPH (reduced nicotinamide adenine dinucleotide phosphate, manufactured by Sigma), 20 μM fatty acid-free bovine serum albumin (manufactured by Sigma), 40 μM long chain fatty acid CoA (manufactured by Sigma, manufactured by Avanti), and 50,000 dpm of 60 μM malonyl-CoA (manufactured by Sigma, Muromachi Yakuhin Kagaku) was incubated at 37° C. for 2 hours in a 96-well Opti-plate (Packard), and then, 0.25% octyl-beta-glucoside was added thereto to stop the reaction.
(§2) Subsequently, 2 μg of a human acyl-CoA-binding protein tagged with a His tag at the N terminus and 500 μg of SPA resin (PVT copper His-Tag SPA Beads, manufactured by Amersham) were added to the reaction solution, and the resulting mixture was incubated at 37° C. for 30 minutes, followed by centrifugation at 3,000 rpm, and an activity was measured using a Top Count (Packard).
(§3) In order to evaluate a specific activity, an expression vector in which either enzyme was not cloned was transfected into a host cell, HEK293 by the host cationic lipid method, and comparison was carried out with the microsomal sample obtained by a standard method from the expressing cell.

[2] = target: T2, hElovl-3 (human elongase of very long chain fatty acids-like 3) (Homo sapiens, UniProt Q9HB03); assay: Measuring activity of hElovl-3 using N-Tag-hACBP (SPA); details: HEK293 microsomal sample of hElovl-3, 40 μM long chain fatty acid CoA, 60 μM malonyl-CoA, 37° C. 2 hours, FIG. 2
T2 construct: made in house; host or cells: HEK293, microsomal sample
T2 sequence (Q9HB03 1-270): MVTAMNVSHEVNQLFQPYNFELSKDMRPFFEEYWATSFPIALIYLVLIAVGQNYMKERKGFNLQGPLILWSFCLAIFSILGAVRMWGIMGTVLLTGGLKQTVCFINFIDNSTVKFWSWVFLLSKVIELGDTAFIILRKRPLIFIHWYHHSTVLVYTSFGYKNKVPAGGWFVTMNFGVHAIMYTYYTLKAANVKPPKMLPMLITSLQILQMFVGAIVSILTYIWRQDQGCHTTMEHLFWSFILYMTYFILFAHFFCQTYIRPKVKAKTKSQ
Protocol: as §1, §2, §3

[3] = target: T3, hLCE (human long chain fatty acyl elongase) (Homo sapiens, UniProt Q9H5J4); assay: Measuring LCE activity using N-Tag-hACBP (SPA); details: yeast microsomal sample of hLCE, 40 μM long chain fatty acid CoA, 60 μM malonyl-CoA, 37° C. 2 hours, FIG. 1
T3 construct: made in house; host or cells: Pichia pastoris (yeast), microsomal sample
T3 sequence (Q9H5J4 1-265): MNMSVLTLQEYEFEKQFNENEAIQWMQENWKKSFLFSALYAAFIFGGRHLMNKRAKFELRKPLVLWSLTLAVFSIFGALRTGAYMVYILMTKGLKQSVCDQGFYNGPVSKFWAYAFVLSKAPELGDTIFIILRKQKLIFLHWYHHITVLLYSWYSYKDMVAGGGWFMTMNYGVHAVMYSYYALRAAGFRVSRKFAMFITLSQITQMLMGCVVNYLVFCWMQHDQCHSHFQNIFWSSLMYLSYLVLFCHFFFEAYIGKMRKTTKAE
Protocol: as §1, with “above-mentioned yeast” for “cell”, “sample,” for “sample of hElovl-3 or hElovl-1 obtained by the above-mentioned preparation method,”, “Sigma),” for “Sigma, manufactured by Avanti),”
Subsequently, 2 μg of a human acyl-CoA-binding protein tagged with a His tag at the N terminus and 500 μg of SPA resin (PVT copper His-Tag SPA Beads, manufactured by Amersham) were added thereto, and the resulting mixture was incubated at 37° C. for 30 minutes.
The solution after incubation was centrifuged at 3,000 rpm, and an activity was measured using a Top Count (Packard). Here, in order to evaluate a specific activity, an expression vector in which hLCE was not cloned was transfected into a host yeast, Pichia pastris by the electroporation method, whereby a transformed yeast was obtained. […]

| SMILES | enhancement of a signal (enzyme activity with the acyl-CoA used as the substrate) [1] | enhancement of a signal (enzyme activity with the acyl-CoA used as the substrate) [2] | enhancement of a signal (enzyme activity with the acyl-CoA used as the substrate) [3] |
| --- | --- | --- | --- |
| CCCCCCCCCCCCCCCCCCCC(=O)SCCNC(=O)CCNC(=O)[C@H](O)C(C)(C)COP(=O)(O)OP(=O)(O)OC[C@H]1O[C@@H](n2cnc3c(N)ncnc32)[C@H](O)[C@@H]1OP(=O)(O)O [arachidoyl-CoA] | specific enhancement of a signal was observed |  |  |
| CCCCCCCCCCCCCCCCCCCCCCCC(=O)SCCNC(=O)CCNC(=O)[C@H](O)C(C)(C)COP(=O)(O)OP(=O)(O)OC[C@H]1O[C@@H](n2cnc3c(N)ncnc32)[C@H](O)[C@@H]1OP(=O)(O)O [lignoceroyl-CoA] | enhancement of a signal was not observed | enhancement of a signal was not observed |  |
| CCCCCCCCCCCCCCCC(=O)SCCNC(=O)CCNC(=O)[C@H](O)C(C)(C)COP(=O)(O)OP(=O)(O)OC[C@H]1O[C@@H](n2cnc3c(N)ncnc32)[C@H](O)[C@@H]1OP(=O)(O)O [palmitoyl-CoA] |  |  | specific enhancement of a signal was observed |
| CCCCCCCCCCCCCCCCCC(=O)SCCNC(=O)CCNC(=O)[C@H](O)C(C)(C)COP(=O)(O)OP(=O)(O)OC[C@H]1O[C@@H](n2cnc3c(N)ncnc32)[C@H](O)[C@@H]1OP(=O)(O)O [stearoyl-CoA] |  | specific enhancement of a signal was observed | enhancement of a signal was not observed |
